Assay results from patent US20040219173A1, “METHOD FOR TREATING HIV” (priority 2000, published 2004).
Where two headings read alike, the source gives them in different places.

Legend:
[1] = cited from earlier work
[2] = Complications from use of the NaCl tablets in the test subjects; type: in vivo, human; settings: Example II, 12 subjects, 250 mg tablets
Protocol: 12 representative persons would be treated by the inventive method, but with a 250 mg tablet of solid NaCI (except certain other ingredients also are incorporated into the tablets, for a total of 250 mg, for test subject nos. 11 and 12, as further discussed below).

## [Cl-].[Na+] [NaCI, sodium chloride]
[1]; 0°C
  saturation in water: about 35.7 % by weight
[1]; room temperature (72°F, 22.2°C)
  saturation in water: about 32.6 % by weight
[2]
  complications from use of the tablets: No complications
